Data on one compound can be found in paper PMC11984586, “A novel spider toxin as a selective antagonist of the Kv1 subfamily of voltage-gated potassium channels through gating modulation” (The Journal of Biological Chemistry, 2025).

Series [1] addresses T1, hKv1.3 (Homo sapiens, UniProt P22001).
T1 construct: expressed in transfected cells; host or cells: CHO-K1
In words: Whole-cell patch clamp, Kv1.3 ionic current in CHO-K1 cells. In kind it is cell-based. The settings on record: mean ± SD; for IC50: 500 ms depolarization to +30 mV from −80 mV holding, CHO-K1, room temperature. The protocol: (§1) The cDNA of hKv1.1, hKv1.2, hKv1.3, rKv1.4, hKv1.5, mKv1.6, and hKv1.7 were subcloned into mammalian expression vectors pcDNA3.1 or pCMV-blank vectors, as well as other plasmids described previously ([35]). Channel mutants were generated by site-directed mutations. Briefly, the parental channel plasmid was amplified using a pair of oppositely directed primers harboring the designed mutation site, with KOD Fx (TOYOBO Co, Ltd). The resulting PCR mix was treated with FastDigest DpnI (Thermo Fisher Scientific) to remove the methylated template. Ten microliters of the digested product was then used to transform 100 μl E. coli DH5α competent cells. Transformants were randomly picked and sequenced to confirm the presence of the intended mutation.
(§2) CHO-K1 cells were selected for expressing Kv channels due to their lack of endogenous Kv channels, while HEK293 or ND7/23 cells were used for Nav and Cav channel expression. CHO-K1 cells were cultured in a Dulbecco's modified Eagle's medium/Ham's F-12 nutrient mixture (DMEM-F12) medium, and HEK293T and ND7/23 cells in DMEM medium, all supplemented with 10% fetal bovine serum and 1% penicillin-streptomycin (all from Gibco, Thermo Fisher Scientific, Inc) under standard conditions (37 °C, 5% CO2, and saturated humidity). These cell lines were purchased from Stem Cell Bank, Chinese Academy of Sciences. Channel plasmids were cotransfected with pEGFP-N1 (encoding GFP) into the respective cells using lipofectamine 2000, following the manufacturer's instructions (Invitrogen, Thermo Fisher Scientific, Inc.). Nav1.9-GFP plasmid was transfected into ND7/23 using the X-tremeGENE HP DNA Transfection Reagent (Roche). After 4 to 6 h transfection, cells were seeded onto poly-lysine–coated coverslips, and 24 to 36 h later, transfected cells were ready for patch-clamp analysis.
(§3) Patch clamp experiments were conducted using an electrophysiology platform comprising a MultiClamp 700B amplifier and an Axon Digidata 1550 AD/DA convertor (Axon Instruments). Data acquisition was performed with pClamp 10.5 software (Axon Instruments). All experiments were performed at room temperature.
For Kv current recordings, the bath solution contained (in mM) the following: 140 NaCl, 5 KCl, 1 MgCl2, 2 CaCl2, 10 glucose, and 10 Hepes (pH 7.3, adjusted with NaOH), and the pipette solution contained (in mM) the following: 140 KCl, 2.5 MgCl2, 11 EGTA, and 10 Hepes (pH 7.3, adjusted with KOH). Series resistance was maintained below 10 MΩ and compensated to 80%. Concentration–response curves were fitted by the Hill equation to determine the toxin's potency. Whole cell conductance (G) at each depolarizing voltage (V) was determined using the equation: G = I/(V−Vrev), where I is the current amplitude, and Vrev is the reversal potential. The reversal potential for K^+ current was estimated to be −85.6 mV using the Nernst equation. G-V curves were obtained by plotting the normalized conductance as a function of V and fitted by the Boltzmann equation: y = 1/(1+ exp((Va-V)/k)), which Va is the midpoint voltage, V is the test potential, and k is the slope factor. The steady-state fast inactivation of Kv1.3 was measured using a two-pulses protocol. The cell was held at −120 mV, and a train of conditional voltages (−120–40 mV in 10 mV increments, 60 s) were applied to induce channel inactivation, followed by a +60 mV test pulse (300 ms) to assess the proportion of noninactivated channels. The sweep interval was set to 30 s. Currents at the test pulse (I) were normalized to the maximum value (Imax) and plotted as a function of the conditional voltage (V). The curve was fitted by the Boltzmann equation: I/Imax = A+(1 − A)/(1+exp ((V−Vh)/K)), where Vh is the half-maximum inactivation voltage, A represents the minimum channel availability, and k is the slope factor.

For series [2], the target named is T2, hKv1.5 (Homo sapiens, UniProt P22460).
T2 construct: expressed in transfected cells; host or cells: CHO-K1
T2 sequence (P22460 whole entry): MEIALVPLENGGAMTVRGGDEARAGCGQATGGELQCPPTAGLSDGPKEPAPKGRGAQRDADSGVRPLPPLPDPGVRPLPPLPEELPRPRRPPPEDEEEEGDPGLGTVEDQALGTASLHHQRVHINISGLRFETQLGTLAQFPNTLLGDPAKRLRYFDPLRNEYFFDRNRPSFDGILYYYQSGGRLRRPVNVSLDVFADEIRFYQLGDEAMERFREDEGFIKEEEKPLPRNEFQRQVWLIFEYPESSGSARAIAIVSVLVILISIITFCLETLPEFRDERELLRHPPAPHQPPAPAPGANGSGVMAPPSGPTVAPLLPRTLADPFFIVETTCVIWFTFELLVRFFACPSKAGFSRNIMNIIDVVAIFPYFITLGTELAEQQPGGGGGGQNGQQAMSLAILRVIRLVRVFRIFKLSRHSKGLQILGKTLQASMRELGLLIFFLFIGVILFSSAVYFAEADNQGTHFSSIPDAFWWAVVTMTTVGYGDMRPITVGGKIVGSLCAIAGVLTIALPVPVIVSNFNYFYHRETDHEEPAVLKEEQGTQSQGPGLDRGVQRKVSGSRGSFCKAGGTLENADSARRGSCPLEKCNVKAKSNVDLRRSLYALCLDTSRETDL
In words: Whole-cell patch clamp, Kv1.5 ionic current in CHO-K1 cells. Format: cell-based. The following applies: +30 mV, 500 ms, holding −80 mV, mean ± SD, n = 4–7, read-out: IC50, inhibition of Kv1.5 current (full inhibition). The method, then:
as §1, with “Transformants were randomly picked and sequenced to confirm the presence of the intended mutation.” left out
(§4) CHO-K1 cells were selected for expressing Kv channels due to their lack of endogenous Kv channels, while HEK293 or ND7/23 cells were used for Nav and Cav channel expression. […] After 4 to 6 h transfection, cells were seeded onto poly-lysine–coated coverslips, and 24 to 36 h later, transfected cells were ready for patch-clamp analysis. […]
(§5) For Kv current recordings, the bath solution contained (in mM) the following: 140 NaCl, 5 KCl, 1 MgCl2, 2 CaCl2, 10 glucose, and 10 Hepes (pH 7.3, adjusted with NaOH), and the pipette solution contained (in mM) the following: 140 KCl, 2.5 MgCl2, 11 EGTA, and 10 Hepes (pH 7.3, adjusted with KOH). […] The steady-state fast inactivation of Kv1.3 was measured using a two-pulses protocol. […]
(Patch clamp records ionic current or voltage across a cell membrane.)

Series [3] has as its target T3, mKv1.6 (Mus musculus, UniProt Q61923).
T3 construct: expressed in transfected cells; host or cells: CHO-K1
Briefly: Whole-cell patch clamp, Kv1.6 ionic current in CHO-K1 cells. In kind it is cell-based. The following applies: +30 mV, 500 ms, holding −80 mV, mean ± SD, n = 4–7, read-out: IC50, inhibition of Kv1.6 current (full inhibition). The protocol:
as §1, with “Transformants were randomly picked and sequenced to confirm the presence of the intended mutation.” left out
as §4, §5

The target in series [4] is T4, hKv1.1 (Homo sapiens, UniProt Q09470).
T4 construct: expressed in transfected cells; host or cells: CHO-K1
T4 sequence (Q09470 whole entry): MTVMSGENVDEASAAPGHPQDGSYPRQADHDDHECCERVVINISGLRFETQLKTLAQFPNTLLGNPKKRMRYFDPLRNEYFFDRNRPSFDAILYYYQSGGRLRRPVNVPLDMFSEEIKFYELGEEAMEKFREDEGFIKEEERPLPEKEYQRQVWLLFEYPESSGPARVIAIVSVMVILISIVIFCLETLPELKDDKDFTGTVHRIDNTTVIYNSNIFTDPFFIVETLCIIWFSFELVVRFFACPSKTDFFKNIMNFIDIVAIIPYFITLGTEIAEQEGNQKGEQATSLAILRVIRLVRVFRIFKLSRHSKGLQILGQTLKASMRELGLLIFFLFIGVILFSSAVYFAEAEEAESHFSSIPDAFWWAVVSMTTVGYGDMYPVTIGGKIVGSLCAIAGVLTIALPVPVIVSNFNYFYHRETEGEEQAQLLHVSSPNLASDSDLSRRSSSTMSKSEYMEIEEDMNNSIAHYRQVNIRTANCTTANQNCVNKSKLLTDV
Briefly: Whole-cell patch clamp, Kv1.1 ionic current in CHO-K1 cells. Format: cell-based. The protocol: as §1, §2, §3
as §5, with “KOH). Series resistance was maintained below 10 MΩ and compensated to 80%. […] Whole cell conductance (G) at each depolarizing voltage (V) was determined using the equation: G = I/(V−Vrev), where I is the current amplitude, and Vrev is the reversal potential.” for “KOH).”

The target in series [5] is T5, rKv1.4 (Rattus norvegicus, UniProt P15385).
T5 construct: expressed in transfected cells; host or cells: CHO-K1
T5 sequence (P15385 whole entry): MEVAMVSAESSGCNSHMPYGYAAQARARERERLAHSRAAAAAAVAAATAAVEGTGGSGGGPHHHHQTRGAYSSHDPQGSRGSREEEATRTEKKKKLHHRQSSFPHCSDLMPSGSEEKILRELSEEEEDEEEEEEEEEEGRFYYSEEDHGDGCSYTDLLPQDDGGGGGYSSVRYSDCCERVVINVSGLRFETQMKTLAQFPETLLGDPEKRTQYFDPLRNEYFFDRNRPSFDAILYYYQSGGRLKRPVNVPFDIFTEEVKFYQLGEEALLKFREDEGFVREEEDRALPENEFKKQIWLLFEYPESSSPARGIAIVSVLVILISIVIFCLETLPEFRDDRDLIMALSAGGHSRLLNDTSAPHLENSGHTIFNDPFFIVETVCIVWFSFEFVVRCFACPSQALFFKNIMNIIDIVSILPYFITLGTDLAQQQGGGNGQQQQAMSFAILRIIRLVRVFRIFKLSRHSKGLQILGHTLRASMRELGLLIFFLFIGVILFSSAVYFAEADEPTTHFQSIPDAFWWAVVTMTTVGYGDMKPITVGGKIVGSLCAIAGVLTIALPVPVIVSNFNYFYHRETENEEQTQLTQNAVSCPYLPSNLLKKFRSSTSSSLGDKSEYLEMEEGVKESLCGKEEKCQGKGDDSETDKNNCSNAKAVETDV
Briefly: Whole-cell patch clamp, Kv1.4 ionic current in CHO-K1 cells. Format: cell-based. The method, then:
as §1, with “Transformants were randomly picked and sequenced to confirm the presence of the intended mutation.” left out
as §4, §5

Series [6] concerns the target T6, Kv1.3/I472C mutant (Kv1.3∗) (Homo sapiens, UniProt P22001, I472C).
T6 construct: expressed in transfected cells; host or cells: HEK293T
Briefly: Gating-current recording, Kv1.3* in HEK293T cells. The following applies: mean ± SD; for IC50: held at −100 mV, 50 ms depolarization to +30 mV, HEK293T. In kind it is cell-based. The method, then: as §1
as §2, with “Nav1.9-GFP plasmid was transfected into ND7/23 using the X-tremeGENE HP DNA Transfection Reagent (Roche).” left out, “analysis. […]” for “analysis.”
Gating currents were recorded by transfecting HEK293T cells with a saturating dose of plasmid to ensure maximal channel expression. […] Gating charge movement (Q) was determined by integrating the area under the IgON and IgOFF traces, representing voltage sensor movement in response to depolarizing pulses. […]

For series [7], the system named is hERG. In words: Selectivity patch clamp, non-Kv1 channels. The following applies: 10 μM MrVIII; n = 3–5. In kind it is cell-based, human. The protocol: as §2, with “Channel plasmids were cotransfected with pEGFP-N1 (encoding GFP) into the respective cells using lipofectamine 2000, following the manufacturer's instructions (Invitrogen, Thermo Fisher Scientific, Inc.). Nav1.9-GFP plasmid was transfected into ND7/23 using the X-tremeGENE HP DNA Transfection Reagent (Roche).” left out, “analysis. […]” for “analysis.”
For Kv current recordings, the bath solution contained (in mM) the following: 140 NaCl, 5 KCl, 1 MgCl2, 2 CaCl2, 10 glucose, and 10 Hepes (pH 7.3, adjusted with NaOH), and the pipette solution contained (in mM) the following: 140 KCl, 2.5 MgCl2, 11 EGTA, and 10 Hepes (pH 7.3, adjusted with KOH). […] Whole cell conductance (G) at each depolarizing voltage (V) was determined using the equation: G = I/(V−Vrev), where I is the current amplitude, and Vrev is the reversal potential. […] The steady-state fast inactivation of Kv1.3 was measured using a two-pulses protocol. […]

[8] abbreviates: current measured at 50 ms of a 500 ms depolarization to +30 mV, mean ± SD, n = 4–7, SD.

The structures appear in SMILES notation. Like-named read-outs stand apart in the source and are kept apart here. Bridge positions count the residues as written; N and C are the ends. Peptide text beside a SMILES is read from it.

T6 sequence (P22001 whole entry I472C): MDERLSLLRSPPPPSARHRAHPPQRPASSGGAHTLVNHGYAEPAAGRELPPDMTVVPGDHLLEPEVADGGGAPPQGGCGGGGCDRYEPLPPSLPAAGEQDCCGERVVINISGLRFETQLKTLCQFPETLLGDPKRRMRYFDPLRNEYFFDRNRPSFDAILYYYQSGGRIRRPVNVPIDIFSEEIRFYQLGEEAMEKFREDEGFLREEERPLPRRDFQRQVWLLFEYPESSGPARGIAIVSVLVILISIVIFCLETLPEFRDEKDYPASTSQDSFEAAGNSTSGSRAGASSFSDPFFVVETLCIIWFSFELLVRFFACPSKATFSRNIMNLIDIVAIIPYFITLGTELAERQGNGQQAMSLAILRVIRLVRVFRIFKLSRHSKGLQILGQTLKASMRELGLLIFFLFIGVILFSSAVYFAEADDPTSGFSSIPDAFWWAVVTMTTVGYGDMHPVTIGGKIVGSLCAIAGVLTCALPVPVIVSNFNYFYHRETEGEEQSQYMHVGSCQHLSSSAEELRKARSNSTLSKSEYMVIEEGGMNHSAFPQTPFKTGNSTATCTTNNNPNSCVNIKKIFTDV
T1 sequence (P22001 whole entry): as the sequence (P22001 whole entry I472C) above, with C472I counted along it
T3 sequence (Q61923 whole entry): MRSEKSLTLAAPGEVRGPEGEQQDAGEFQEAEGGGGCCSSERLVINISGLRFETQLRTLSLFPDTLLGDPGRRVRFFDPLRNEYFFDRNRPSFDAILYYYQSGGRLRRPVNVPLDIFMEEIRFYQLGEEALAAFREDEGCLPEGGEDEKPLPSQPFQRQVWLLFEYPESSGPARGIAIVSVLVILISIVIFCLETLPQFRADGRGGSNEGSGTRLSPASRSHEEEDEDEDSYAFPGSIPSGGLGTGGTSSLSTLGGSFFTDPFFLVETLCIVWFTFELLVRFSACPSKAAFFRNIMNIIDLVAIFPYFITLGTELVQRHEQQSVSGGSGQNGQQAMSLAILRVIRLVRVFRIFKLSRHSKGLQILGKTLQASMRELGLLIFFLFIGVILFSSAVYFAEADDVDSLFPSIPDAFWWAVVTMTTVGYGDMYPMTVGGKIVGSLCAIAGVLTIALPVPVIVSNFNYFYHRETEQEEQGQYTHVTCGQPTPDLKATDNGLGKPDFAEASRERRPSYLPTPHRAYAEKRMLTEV

In general, IC50 refers to the concentration that gives 50% inhibition. As usually defined, the inhibition is the percentage by which the read-out fell short of the control. As for `CC[C@H](C)[C@@H]1NC(=O)[C@H](Cc2ccc(O)cc2)NC(=O)[C@H](CCC(N)=O)NC(=O)[C@@H]2CCCN2C(=O)[C@@H]2CSSC[C@H](NC(=O)[C@H](C)NC(=O)[C@H](CO)NC(=O)[C@H](CCC(=O)O)NC(=O)[C@H](CCC(=O)O)NC(=O)[C@@H](N)[C@@H](C)O)C(=O)NCC(=O)NCC(=O)N[C@@H](Cc3ccccc3)C(=O)N[C@@H](CC(N)=O)C(=O)N[C@@H](C)C(=O)N[C@@H](CCCNC(=N)N)C(=O)N[C@H]3CSSC[C@H](NC1=O)C(=O)N[C@@H](CCCCN)C(=O)NCC(=O)N[C@@H](Cc1c[nH]c4ccccc14)C(=O)N[C@@H](CCCNC(=N)N)C(=O)N[C@@H]([C@@H](C)O)C(=O)N[C@@H](CCCCN)C(=O)N[C@@H](CCCNC(=N)N)C(=O)N[C@H](C(=O)N[C@@H](CC(C)C)C(=O)N[C@@H](CC(N)=O)C(=O)N1CCC[C@H]1C(=O)O)CSSC[C@H](NC(=O)[C@H](CCCCN)NC(=O)[C@H](Cc1c[nH]cn1)NC(=O)[C@H](CC(C)C)NC(=O)[C@@H]1CCCN1C3=O)C(=O)N2` [MrVIII] (H-TEESACGGFNARCPLHKCCPQYICKGWRTKRCLNP-OH; disulfide 6-19, 13-24, 18-32; N-terminus and C-terminus assumed), the “Va of G-V curve of Kv1.3 after toxin” value in series [1] (5 nM MrVIII, control Va = −26.4 ± 4.6 mV, Boltzmann fit) is −27.7 ± 5.1 mV. For the same compound, the “Vh of steady-state inactivation of Kv1.3 after toxin” value in series [1] (5 nM MrVIII, control Vh = −42.2 ± 4.7 mV, two-pulse protocol) was −42.5 ± 2.4 mV. The “time constant for toxin association, Kv1.3” value in series [1] (10 nM MrVIII, n = 6) turned out to be 5.4 ± 1.2 s. The IC50 in series [1] (native toxin, n = 7, read-out: IC50, inhibition of Kv1.3 peak current) was found to be 4.4 ± 1.1 nM; in series [1] (synthetic refolded toxin, n = 7, read-out: IC50, inhibition of Kv1.3 current), 4.8 ± 1.6 nM; in series [2], 5.7 ± 2.2 nM; in series [3], 13.4 ± 6.7 nM; in series [4] (setting [8]), 50.9 ± 21.7 nM; in series [5] (setting [8]), 62.7 ± 56.9 nM. Further, the IC50 in series [6] (n = 8, read-out: IC50, inhibition of IgOFF gating current of Kv1.3∗) amounted to 7 ± 4.2 nM; in series [6] (n = 8, read-out: IC50, inhibition of IgON gating current of Kv1.3∗), 5 ± 3.4 nM. In addition, in series [1] (washout with bath solution after 10 nM MrVIII, n = 6), the “time constant for dissociation from Kv1.3” value is reported as 33.4 ± 8.3 s. For the same compound, in series [4] (10 μM (saturating), current at 495 ms, +30 mV, mean ± SD, SD), the “inhi%(495 ms), Kv1.1 current” value amounted to 23.9 ± 18.5%. Further, in series [4] (10 μM MrVIII, I-V protocol), the “inhibitory effect on Kv1.1 current at 495 ms once depolarizing voltage exceeded +40 mV” value is on record as “negligible”. Further, the inhibition at 10 µM in series [4] (CHO-K1, 10 μM MrVIII, I-V protocol, holding −80 mV, mean ± SD, n = 5–7, SD, read-out: inhibition of Kv1.1 current at 50 ms at +100 mV) stood at 11.6 ± 7.9%. Moreover, the “enhancement of the 495 ms current of Kv1.4” value in series [5] (in the presence of MrVIII (10 μM saturating), +30 mV, 495 ms) was determined as 3.9 fold. The “Va of Q-V relationship of Kv1.3∗ after toxin” value in series [6] (5 nM MrVIII, before toxin −30.1 ± 7.1 mV, n = 5) is −27.4 ± 10.3 mV. In series [7], the “inhibition of hERG current” value was “did not remarkably inhibit”.
